The values that follow come from patent US10759794B2, “2-phenyl-3-(piperazinomethyl)imidazo[1,2-A]pyridine derivatives as blockers of task-1 and task-2 channels, for the treatment of sleep-related breathing disorders” (BAYER PHARMA AKTIENGESELLSCHAFT, priority 2015, dated 2020).

The target of one assay is human TASK-1 (Homo sapiens (Human), UniProt O14649). The experiment in a line: Inhibition of recombinant TASK-1 in stably transfected CHO cells (voltage-sensitive dye, FLIPR). The assay is classed as cell-based. As to conditions: depolarization induced by 40 mM potassium chloride, Table 2A. Here is the method: (§1) B-2. Inhibition of Recombinant TASK-1 and TASK-3 In Vitro
Chain of human TASK-1 (O14649 whole entry): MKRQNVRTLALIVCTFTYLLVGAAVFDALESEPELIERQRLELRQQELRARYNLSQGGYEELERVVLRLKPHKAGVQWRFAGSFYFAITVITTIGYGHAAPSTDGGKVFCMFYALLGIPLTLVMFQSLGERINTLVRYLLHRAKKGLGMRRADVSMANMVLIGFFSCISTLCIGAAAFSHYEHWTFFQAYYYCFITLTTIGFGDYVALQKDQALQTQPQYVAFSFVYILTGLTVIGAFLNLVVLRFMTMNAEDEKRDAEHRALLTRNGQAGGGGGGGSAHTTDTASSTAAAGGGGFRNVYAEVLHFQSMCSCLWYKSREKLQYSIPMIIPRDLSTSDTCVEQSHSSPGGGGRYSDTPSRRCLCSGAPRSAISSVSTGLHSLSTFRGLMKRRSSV
(§2) The investigations on the inhibition of the recombinant TASK-1 and TASK-3 channels were carried out using stably transfected CHO cells. Here, the compounds according to the invention were tested with administration of 40 mM of potassium chloride in the presence of a voltage-sensitive dye using the method described in detail in the following references [Whiteaker et al., Validation of FLIPR membrane potential dye for high-throughput screening of potassium channel modulators, J. Biomol. Screen. 6 (5), 305-312 (2001); Molecular Devices FLIPR Application Note: Measuring membrane potential using the FLIPR® membrane potential assay kit on Fluorometric Imaging Plate Reader (FLIPR®) systems, http://www.moleculardevices.com/reagents-supplies/assay-kits/ion-channels/flipr-membrane-potential-assay-kits]. The activity of the test substances was determined as their ability to inhibit a depolarization induced in the recombinant cells by 40 mM potassium chloride. The concentration which can block half of this depolarization is referred to as IC50.

Another assay has as its target human TASK-3 (Homo sapiens (Human), UniProt Q9NPC2). The experiment in a line: Inhibition of recombinant TASK-3 in stably transfected CHO cells (voltage-sensitive dye, FLIPR). The class given is cell-based. The following applies: depolarization induced by 40 mM potassium chloride, Table 2A. Here is the method:
as §1, §2

Chain of human TASK-3 (Q9NPC2 whole entry): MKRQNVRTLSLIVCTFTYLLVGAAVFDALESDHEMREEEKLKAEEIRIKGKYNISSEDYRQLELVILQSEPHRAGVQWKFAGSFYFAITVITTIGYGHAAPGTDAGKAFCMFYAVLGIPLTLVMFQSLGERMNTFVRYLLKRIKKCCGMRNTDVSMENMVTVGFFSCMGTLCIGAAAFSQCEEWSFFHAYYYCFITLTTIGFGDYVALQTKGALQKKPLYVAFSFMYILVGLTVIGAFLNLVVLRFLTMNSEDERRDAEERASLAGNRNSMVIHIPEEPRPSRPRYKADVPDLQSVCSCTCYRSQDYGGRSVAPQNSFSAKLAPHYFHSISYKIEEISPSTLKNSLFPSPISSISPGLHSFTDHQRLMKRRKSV

Broadly, the IC50 is the midpoint of a concentration-inhibition curve. In the case of `COc1cccc(C(=O)N2CCN(Cc3c(-c4ccc(Br)cc4)nc4ccccn34)CC2)c1` [Example 5, (4-{[2-(4-Bromophenyl)imidazo[1,2-a]pyridin-3-yl]methyl}piperazin-1-yl)(3-methoxyphenyl)methanone], the IC50 was determined as 827 nM at human TASK-1 and 380 nM on human TASK-3.

As for `O=C(c1cc(F)ccc1Cl)N1CCN(Cc2c(-c3ccc(Br)cc3)nc3ccccn23)CC1` [Example 6, (4-{[2-(4-Bromophenyl)imidazo[1,2-a]pyridin-3-yl]methyl}piperazin-1-yl)(2-chloro-5-fluorophenyl)methanone], the IC50 at human TASK-1 is 500 nM; on human TASK-3 it was 360 nM.

Turning to `O=C(c1ccccc1F)N1CCN(Cc2c(-c3ccc(Cl)cc3)nc3ccccn23)CC1` [Example 7, (4-{[2-(4-Chlorophenyl)imidazo [1,2-a]pyridin-3-yl]methyl}piperazin-1-yl)(2-fluorophenyl)methanone], the IC50 at human TASK-1 is 350 nM; on human TASK-3, 98 nM.

Take `O=C(C1CCCCC1)N1CCN(Cc2c(-c3ccc(F)cc3)nc3ccccn23)CC1` [Example 8, (4-{[2-(4-Fluorophenyl)imidazo[1,2-a]pyridin-3-yl]methyl}piperazin-1-yl)(cyclohexyl)methanone]: the IC50 was 893 nM at human TASK-1 and 2500 nM at human TASK-3.

Consider `O=C(C1CCCCC1)N1CCN(Cc2c(-c3ccc(Br)cc3)nc3ccccn23)CC1` [Example 9], for which the IC50 at human TASK-1 turned out to be 232 nM; at human TASK-3, 200 nM.

Consider `O=C(C1CCC1)N1CCN(Cc2c(-c3ccc(Br)cc3)nc3ccccn23)CC1` [Example 11], for which the IC50 at human TASK-1 was 378 nM; on human TASK-3, 240 nM.

In the case of `COc1ccccc1C(=O)N1CCN(Cc2c(-c3ccc(Br)cc3)nc3ccccn23)CC1` [Example 12], the IC50 on human TASK-1 is 409 nM; at human TASK-3 it was 71 nM.

In the case of `COc1ccc(F)cc1C(=O)N1CCN(Cc2c(-c3ccc(Br)cc3)nc3ccccn23)CC1` [Example 13], the IC50 on human TASK-1 was determined as 672 nM; on human TASK-3, 350 nM.

Regarding `Cc1ccccc1C(=O)N1CCN(Cc2c(-c3ccc(Br)cc3)nc3ccccn23)CC1` [Example 14], the results for the IC50 at human TASK-1 and on human TASK-3 were 481 nM and 310 nM, respectively.

For `Cc1ccc(F)cc1C(=O)N1CCN(Cc2c(-c3ccc(Br)cc3)nc3ccccn23)CC1` [Example 15], the concentration for half-maximal inhibition (IC50) on human TASK-1 amounted to 1170 nM; at human TASK-3 it was 380 nM.

For `O=C(c1cc(F)ccc1Cl)N1CCN(Cc2c(-c3ccc(Cl)cc3)nc3ccccn23)CC1` [Example 16], the half-maximal inhibitory concentration (IC50) came to 304 nM at human TASK-1 and 110 nM on human TASK-3.

`O=C(C1CCCCC1)N1CCN(Cc2c(-c3ccc(Cl)cc3)nc3ccccn23)CC1` [Example 17]: the figures for the IC50 at human TASK-1 and at human TASK-3 were 774 nM and 510 nM, respectively.

As to `O=C(C1CCC1)N1CCN(Cc2c(-c3ccc(Cl)cc3)nc3ccccn23)CC1` [Example 18], the results for the IC50 on human TASK-1 and at human TASK-3 were 242 nM and 120 nM, respectively.

Take `COc1cccc(C(=O)N2CCN(Cc3c(-c4ccc(Cl)cc4)nc4ccccn34)CC2)c1` [Example 19]: the IC50 at human TASK-1 was 515 nM; at human TASK-3, 300 nM.

For the molecule `COc1ccccc1C(=O)N1CCN(Cc2c(-c3ccc(Cl)cc3)nc3ccccn23)CC1` [Example 20], the values for the IC50 on human TASK-1 and on human TASK-3 were 305 nM and 52 nM, respectively.

Consider `COc1ccc(F)cc1C(=O)N1CCN(Cc2c(-c3ccc(Cl)cc3)nc3ccccn23)CC1` [Example 21], for which the IC50 at human TASK-1 stood at 454 nM; on human TASK-3 it was 150 nM.

Turning to `Cc1ccccc1C(=O)N1CCN(Cc2c(-c3ccc(Cl)cc3)nc3ccccn23)CC1` [Example 22], the values for the IC50 on human TASK-1 and at human TASK-3 were 387 nM and 140 nM, respectively.

With `Cc1ccc(F)cc1C(=O)N1CCN(Cc2c(-c3ccc(Cl)cc3)nc3ccccn23)CC1` [Example 23], the IC50 at human TASK-1 was determined as 685 nM; on human TASK-3 it was 160 nM.

In the case of `O=C(c1cccc(OC(F)(F)F)c1)N1CCN(Cc2c(-c3ccc(Cl)cc3)nc3ccccn23)CC1` [Example 24], the IC50 at human TASK-1 turned out to be 1140 nM; at human TASK-3, 810 nM.

As for `O=C(c1cccc(C(F)(F)F)c1)N1CCN(Cc2c(-c3ccc(Cl)cc3)nc3ccccn23)CC1` [Example 25], the IC50 amounted to 1900 nM on human TASK-1 and 820 nM at human TASK-3.

In the case of `O=C(c1ccccn1)N1CCN(Cc2c(-c3ccc(Cl)cc3)nc3ccccn23)CC1` [Example 26], the results for the concentration for half-maximal inhibition (IC50) at human TASK-1 and at human TASK-3 were 708 nM and 590 nM, respectively.

As for `COc1ccc(F)c(C(=O)N2CCN(Cc3c(-c4ccc(Cl)cc4)nc4ccccn34)CC2)c1` [Example 27], the IC50 worked out at 590 nM at human TASK-1 and 120 nM at human TASK-3.

`CCOc1ccccc1C(=O)N1CCN(Cc2c(-c3ccc(Cl)cc3)nc3ccccn23)CC1` [Example 28]: the IC50 at human TASK-1 was determined as 510 nM; on human TASK-3, 14 nM.

Turning to `COc1ccc(Cl)c(C(=O)N2CCN(Cc3c(-c4ccc(Cl)cc4)nc4ccccn34)CC2)c1` [Example 29], the IC50 at human TASK-1 stood at 1200 nM; at human TASK-3, 99 nM.

As to `O=C(C1CCCCO1)N1CCN(Cc2c(-c3ccc(Cl)cc3)nc3ccccn23)CC1` (stereo not shown) [Example 30], the IC50 at human TASK-1 came to 1800 nM; at human TASK-3 it was 400 nM.

`CC(C)Oc1cccc(C(=O)N2CCN(Cc3c(-c4ccc(Cl)cc4)nc4ccccn34)CC2)c1` [Example 31]: the concentration for half-maximal inhibition (IC50) at human TASK-1 amounted to 2100 nM; on human TASK-3, 1300 nM.

For `N#Cc1ccccc1C(=O)N1CCN(Cc2c(-c3ccc(Cl)cc3)nc3ccccn23)CC1` [Example 32], the IC50 on human TASK-1 was 430 nM; at human TASK-3, 130 nM.

With `CC(C)c1cccc(C(=O)N2CCN(Cc3c(-c4ccc(Cl)cc4)nc4ccccn34)CC2)c1` [Example 33], the IC50 was 2500 nM at human TASK-1 and 2000 nM on human TASK-3.

Turning to `CC(C)c1ccccc1C(=O)N1CCN(Cc2c(-c3ccc(Cl)cc3)nc3ccccn23)CC1` [Example 34], the figures for the IC50 on human TASK-1 and on human TASK-3 were 400 nM and 63 nM, respectively.

As for `O=C(C1CCCO1)N1CCN(Cc2c(-c3ccc(Cl)cc3)nc3ccccn23)CC1` (stereo not shown) [Example 35], the IC50 at human TASK-1 turned out to be 1250 nM; at human TASK-3, 790 nM.

As to `O=C(c1cccc(Cl)c1)N1CCN(Cc2c(-c3ccc(Cl)cc3)nc3ccccn23)CC1` [Example 36], the IC50 at human TASK-1 was 520 nM; on human TASK-3, 190 nM.

Take `O=C(c1ccccc1Cl)N1CCN(Cc2c(-c3ccc(Cl)cc3)nc3ccccn23)CC1` [Example 37]: the values for the IC50 on human TASK-1 and on human TASK-3 were 370 nM and 60 nM, respectively.

Take `O=C(c1cccc(OCC(F)(F)F)n1)N1CCN(Cc2c(-c3ccc(Cl)cc3)nc3ccccn23)CC1` [Example 38]: the IC50 was 1000 nM on human TASK-1 and 30 nM at human TASK-3.

In the case of `COc1cc(C)cc(C(=O)N2CCN(Cc3c(-c4ccc(Cl)cc4)nc4ccccn34)CC2)n1` [Example 40], the values for the IC50 at human TASK-1 and at human TASK-3 were 1000 nM and 770 nM, respectively.

For the molecule `O=C(c1cccc(OC2CCC2)n1)N1CCN(Cc2c(-c3ccc(Cl)cc3)nc3ccccn23)CC1` [Example 41], the results for the IC50 on human TASK-1 and at human TASK-3 were 1300 nM and 190 nM, respectively.

As for `COc1ccc(Br)c(C(=O)N2CCN(Cc3c(-c4ccc(Cl)cc4)nc4ccccn34)CC2)n1` [Example 42], the 50% inhibitory concentration (IC50) amounted to 310 nM at human TASK-1 and 13 nM on human TASK-3.

For the molecule `COc1ccc(Cl)c(C(=O)N2CCN(Cc3c(-c4ccc(Cl)cc4)nc4ccccn34)CC2)n1` [Example 43], the IC50 on human TASK-1 is 220 nM; on human TASK-3, 10 nM.

Take `O=C(c1cccc(OC(F)F)n1)N1CCN(Cc2c(-c3ccc(Cl)cc3)nc3ccccn23)CC1` [Example 44]: the figures for the IC50 on human TASK-1 and on human TASK-3 were 270 nM and 17 nM, respectively.
